Measured values reported in patent EP0025288A1, “Derivatives of monic acid, processes for their preparation, compositions containing them and their preparation” (priority 1979, dated 1981).

Columns and labels:
Type in all cases: cell-based
M pulmonis JB [1] = test: MIC, anti-mycoplasmal, Friis' broth microtiter method
M dispar H225 = test: as above
[2] = system: Neisseria flavescens 8263; test: MIC, human bacteria, serial dilution in nutrient agar; conditions: nutrient agar containing 5% 'chocolated' horse blood
M dispar NCTC 10125 = test: MIC, anti-mycoplasmal, Friis' broth microtiter method
[3] = system: Pasteurella multocida 1633; test: MIC, human bacteria, serial dilution in nutrient agar; conditions: nutrient agar containing 5% 'chocolated' horse blood
M fermentans MWKL4 [4] = test: MIC, anti-mycoplasmal, Friis' broth microtiter method
Bacillus subtilis 6633 = test: MIC, human bacteria, serial dilution in nutrient agar; conditions: nutrient agar containing 5% 'chocolated' horse blood
M bovis ATCC 25025 = test: MIC, anti-mycoplasmal, serial dilution in Friis' agar
[5] = system: Erysipelothrix rhusiopathiae NCTC 8163; test: MIC, veterinary bacteria; conditions: veterinary bacteria (Table 2)
Staph aureus Russell = test: MIC, human bacteria, serial dilution in nutrient agar; conditions: nutrient agar containing 5% 'chocolated' horse blood
[6] = system: Corynebacterium pyogenes CY1; test: MIC, veterinary bacteria; conditions: veterinary bacteria (Table 2)
Past multocida PA1 = test: MIC, veterinary bacteria; conditions: veterinary bacteria (Table 2)
Strep pyogenes A 64/848 = test: MIC, human bacteria, serial dilution in nutrient agar; conditions: nutrient agar containing 5% 'chocolated' horse blood
E coli ESS = test: as above; conditions: nutrient agar containing 5% 'chocolated' horse blood
Past multocida PA2 = test: MIC, veterinary bacteria; conditions: veterinary bacteria (Table 2)
Strep pyogenes B 2788 = test: MIC, human bacteria, serial dilution in nutrient agar; conditions: nutrient agar containing 5% 'chocolated' horse blood
S typhimurium S18 = test: MIC, veterinary bacteria; conditions: veterinary bacteria (Table 2)
M suipneumoniae Str 11 = test: MIC, anti-mycoplasmal, Friis' broth microtiter method
Sercina lutea 8340 = test: MIC, human bacteria, serial dilution in nutrient agar; conditions: nutrient agar containing 5% 'chocolated' horse blood
[7] = system: Haemophilus influenzae Q1; test: as above; conditions: nutrient agar containing 5% 'chocolated' horse blood
Staph aureus Oxford [8] = test: MIC, veterinary bacteria; conditions: veterinary bacteria (Table 2)
[9] = system: Strep suis (group D) SPS11; test: MIC, veterinary bacteria; conditions: veterinary bacteria (Table 2)
M pulmonis JB [10] = test: MIC, anti-mycoplasmal, serial dilution in Friis' agar
Staph aureus Oxford [11] = test: MIC, human bacteria, serial dilution in nutrient agar; conditions: nutrient agar containing 5% 'chocolated' horse blood
Strep faecalis I = test: as above; conditions: nutrient agar containing 5% 'chocolated' horse blood
M arthritidis ATCC 14124 = test: MIC, anti-mycoplasmal, serial dilution in Friis' agar
M synoviae ATCC 25204 = test: as above
Bord bronchiseptica BO8 = test: MIC, veterinary bacteria; conditions: veterinary bacteria (Table 2)
[12] = system: M suipneumoniae J2206/183b; test: MIC, anti-mycoplasmal, Friis' broth microtiter method
[13] = system: Corynebacterium zerosis 9755; test: MIC, human bacteria, serial dilution in nutrient agar; conditions: nutrient agar containing 5% 'chocolated' horse blood
M pneumoniae ATCC 15492 [14] = test: MIC, anti-mycoplasmal, serial dilution in Friis' agar
S dublin S7 = test: MIC, veterinary bacteria; conditions: veterinary bacteria (Table 2)
M hyorhinis ATCC 23234 = test: MIC, anti-mycoplasmal, serial dilution in Friis' agar
Past Haemolytica PA5 = test: MIC, veterinary bacteria; conditions: veterinary bacteria (Table 2)
Strep pneumoniae CN33 = test: MIC, human bacteria, serial dilution in nutrient agar; conditions: nutrient agar containing 5% 'chocolated' horse blood
M hyosynoviae ATCC 25591 = test: MIC, anti-mycoplasmal, serial dilution in Friis' agar
[15] = system: M bovigenitalium ATCC 14173; test: as above
[16] = system: Staph aureus 152 (pen sens); test: MIC, veterinary bacteria; conditions: veterinary bacteria (Table 2)
K aerogenes A = test: MIC, human bacteria, serial dilution in nutrient agar; conditions: nutrient agar containing 5% 'chocolated' horse blood
Strep pyogenes C 2761 = test: as above; conditions: nutrient agar containing 5% 'chocolated' horse blood
M pneumoniae ATCC 15492 [17] = test: MIC, anti-mycoplasmal, Friis' broth microtiter method
P mirabilis 889 = test: MIC, human bacteria, serial dilution in nutrient agar; conditions: nutrient agar containing 5% 'chocolated' horse blood
M pneumoniae 427a [18] = test: MIC, anti-mycoplasmal, serial dilution in Friis' agar
Staph aureus W2827 = test: MIC, human bacteria, serial dilution in nutrient agar; conditions: nutrient agar containing 5% 'chocolated' horse blood
Bord bronchisptica BO9 = test: MIC, veterinary bacteria; conditions: veterinary bacteria (Table 2)
E coli NCTC 10418 [19] = test: MIC, veterinary bacteria; conditions: veterinary bacteria (Table 2)
Strep agalactiae SPA1 = test: MIC, veterinary bacteria; conditions: veterinary bacteria (Table 2)
M alkalescens NCTC 10135 = test: MIC, anti-mycoplasmal, serial dilution in Friis' agar
M gallisepticum S6 = test: as above
M pneumoniae 427a [20] = test: MIC, anti-mycoplasmal, Friis' broth microtiter method
E coli NCTC 10418 [21] = test: MIC, human bacteria, serial dilution in nutrient agar; conditions: nutrient agar containing 5% 'chocolated' horse blood
Ps aeruginosa 10662 = test: as above; conditions: nutrient agar containing 5% 'chocolated' horse blood
[22] = system: Haemophilus influenzae Wy21; test: as above; conditions: nutrient agar containing 5% 'chocolated' horse blood
[23] = system: Staph aureus B4 (pen resis); test: MIC, veterinary bacteria; conditions: veterinary bacteria (Table 2)
Strep uberis SPU1 = test: MIC, veterinary bacteria; conditions: veterinary bacteria (Table 2)
Strep dysgalaciae SPD1 = test: MIC, veterinary bacteria; conditions: veterinary bacteria (Table 2)
M fermentans MWKL4 [24] = test: MIC, anti-mycoplasmal, serial dilution in Friis' agar
M bovis NCTC 10131 = test: as above
E coli E1 = test: MIC, veterinary bacteria; conditions: veterinary bacteria (Table 2)

8-Acetvloctyl Monate A [Example 3]
in vitro MIC, BROTH (M pulmonis JB [1]): <0.02 µg/mL
in vitro MIC, BROTH (M dispar H225): 0.039 µg/mL
MIC [2]: 0.1 µm/ml
in vitro MIC, BROTH (M dispar NCTC 10125): <0.02 µg/mL
MIC [3]: 1.0 µm/ml
in vitro MIC, BROTH (M fermentans MWKL4 [4]): <0.02 µg/mL
MIC (Bacillus subtilis 6633): 0.2 µm/ml
in vitro MIC, AGAR (M bovis ATCC 25025): 0.039 µg/mL
MIC [5]: 10 µg/mL
MIC (Staph aureus Russell): 9.5 µm/ml
MIC [6]: >80 µg/mL
MIC (Past multocida PA1): 2.5 µg/mL
MIC (Strep pyogenes A 64/848): 0.2 µm/ml
MIC (E coli ESS): 0.5 µm/ml
MIC (Past multocida PA2): 0.156 µg/mL
MIC (Strep pyogenes B 2788): 0.5 µm/ml
MIC (S typhimurium S18): >80 µg/mL
in vitro MIC, BROTH (M suipneumoniae Str 11): 0.039 µg/mL
MIC (Sercina lutea 8340): >100 µm/ml
MIC [7]: 0.2 µm/ml
MIC (Staph aureus Oxford [8]): 0.312 µg/mL
MIC [9]: 1.25 µg/mL
in vitro MIC, AGAR (M pulmonis JB [10]): 0.039 µg/mL
MIC (Staph aureus Oxford [11]): 0.1 µm/ml
MIC (Strep faecalis I): 100 µm/ml
in vitro MIC, AGAR (M arthritidis ATCC 14124): 2.5 µg/mL
in vitro MIC, AGAR (M synoviae ATCC 25204): <0.02 µg/mL
MIC (Bord bronchiseptica BO8): 20 µg/mL
in vitro MIC, BROTH [12]: 0.156 µg/mL
MIC [13]: 100 µm/ml
in vitro MIC, AGAR (M pneumoniae ATCC 15492 [14]): 1.25 µg/mL
MIC (S dublin S7): >80 µg/mL
in vitro MIC, AGAR (M hyorhinis ATCC 23234): 0.625 µg/mL
MIC (Past Haemolytica PA5): 20 µg/mL
MIC (Strep pneumoniae CN33): 0.2 µm/ml
in vitro MIC, AGAR (M hyosynoviae ATCC 25591): 0.156 µg/mL
in vitro MIC, AGAR [15]: 0.078 µg/mL
MIC [16]: 0.312 µg/mL
MIC (K aerogenes A): >100 µm/ml
MIC (Strep pyogenes C 2761): 0.5 µm/ml
in vitro MIC, BROTH (M pneumoniae ATCC 15492 [17]): 0.312 µg/mL
MIC (P mirabilis 889): >100 µm/ml
in vitro MIC, AGAR (M pneumoniae 427a [18]): 1.25 µg/mL
MIC (Staph aureus W2827): 100 µm/ml
MIC (Bord bronchisptica BO9): 5 µg/mL
MIC (E coli NCTC 10418 [19]): >80 µg/mL
MIC (Strep agalactiae SPA1): 0.625 µg/mL
in vitro MIC, AGAR (M alkalescens NCTC 10135): 0.039 µg/mL
in vitro MIC, AGAR (M gallisepticum S6): 5.0 µg/mL
in vitro MIC, BROTH (M pneumoniae 427a [20]): 0.312 µg/mL
MIC (E coli NCTC 10418 [21]): 100 µm/ml
MIC (Ps aeruginosa 10662): >100 µm/ml
MIC [22]: 0.2 µm/ml
MIC [23]: 0.312 µg/mL
MIC (Strep uberis SPU1): 0.07 µg/mL
MIC (Strep dysgalaciae SPD1): 0.156 µg/mL
in vitro MIC, AGAR (M fermentans MWKL4 [24]): 0.039 µg/mL
in vitro MIC, AGAR (M bovis NCTC 10131): ≤0.02 µg/mL
MIC (E coli E1): >80 µg/mL
